Measurements reported in US20240368113A1, “AMIDE COMPOUND AND USE THEREOF” (Chengdu Fendi Pharmaceutical Co. Ltd., priority 2021, published 2024).

What follows are compounds tested on MV-4-11 cells (assay: Inhibition of tumor cell proliferation (CellTiter-Glo)). Details: Homo sapiens, MV4-11, 72 h, read-out: IC50 of inhibitory activity of tumor cell proliferation.
Format: cell-based
Protocol: MV-4-11 cells were diluted with medium (RPM1640+10% FBS+1% PS) and plated at 4000 cells/well in a white-walled clear-bottom 96-well plate. MV-4-11 cells were plated and incubated in a 5% CO2, 37° C. incubator for 2 hours. Cells were treated with the indicated concentration of compound or DMSO (control), and placed in a 5% CO2, 37° C. incubator for 72 h after dosing. After the end of the culture, equilibrate at room temperature for 30 min, add 100 μl of CellTiter-Glo® Reagent to each well, and shake the microplate shaker for 2 min. After 10 min of incubation at room temperature, the luminescence was measured by a microplate reader, and the cell-free wells were used as the background wells. CC-90009 (celegen patent phase I) was used as a control, and its structural formula was as follows: 0

SMILES | IC50 [nM]
COP(=O)(OC)Oc1ccc(C#CC(=O)NCc2ccc3c(c2)CN(C2CCC(=O)NC2=O)C3=O)cc1 (stereo not shown) [Compound 80] | 10 to 100
O=C(C#Cc1ccc(OP(=O)(Oc2ccccc2)Oc2ccccc2)cc1)NCc1ccc2c(c1)CN(C1CCC(=O)NC1=O)C2=O (stereo not shown) [Compound 81] | < 1
CC1(C)COP(=O)(Oc2ccc(C#CC(=O)NCc3ccc4c(c3)CN(C3CCC(=O)NC3=O)C4=O)cc2)OC1 (stereo not shown) [Compound 82] | 10 to 100
CC1(C)COP(=O)(Oc2ccccc2C#CC(=O)NCc2ccc3c(c2)CN(C2CCC(=O)NC2=O)C3=O)OC1 (stereo not shown) [Compound 97] | 1 to 10

Same assay, conditions: Homo sapiens, MV4-11; MV-4-11 cells, 72 h, CellTiter-Glo; read-out: IC50 of inhibitory activity of tumor cell proliferation

SMILES | IC50 [nM]
O=C1CCC(N2Cc3cc(CNC(=O)C(F)(F)c4ccc(Cl)cc4)ccc3C2=O)C(=O)N1 (stereo not shown) [CC-90009] | 10 to 100
CCc1ccc(C#CC(=O)NCc2ccc3c(c2)CN(C2CCC(=O)NC2=O)C3=O)cc1 (stereo not shown) [Compound 1] | < 1
O=C(C#Cc1ccc(F)cn1)NCc1ccc2c(c1)CN(C1CCC(=O)NC1=O)C2=O (stereo not shown) [Compound 12] | 1 to 10
CC(C)(C)C(=O)OCOC(=O)c1cccc(C#CC(=O)NCc2ccc3c(c2)CN(C2CCC(=O)NC2=O)C3=O)c1 (stereo not shown) [Compound 78] | > 100
O=C(C#Cc1cc(O)ccc1Cl)NCc1ccc2c(c1)CN(C1CCC(=O)NC1=O)C2=O (stereo not shown) [Compound 79] | 1 to 10
Nc1ccccc1C#CC(=O)NCc1ccc2c(c1)CN(C1CCC(=O)NC1=O)C2=O (stereo not shown) [Compound 83] | 1 to 10
Nc1cccc(C#CC(=O)NCc2ccc3c(c2)CN(C2CCC(=O)NC2=O)C3=O)c1 (stereo not shown) [Compound 84] | 1 to 10
O=C(C#CC1CCCCN1C(=O)C(F)(F)F)NCc1ccc2c(c1)CN(C1CCC(=O)NC1=O)C2=O (stereo not shown) [Compound 85] | 10 to 100
O=C(O)CCC(=O)Oc1ccc(C#CC(=O)NCc2ccc3c(c2)CN(C2CCC(=O)NC2=O)C3=O)cc1 (stereo not shown) [Compound 86] | 10 to 100
CC(C)(C)OC(=O)CCC(=O)Oc1ccc(C#CC(=O)NCc2ccc3c(c2)CN(C2CCC(=O)NC2=O)C3=O)cc1 (stereo not shown) [Compound 87] | 10 to 100
O=C(O)CCC(=O)Oc1ccccc1C#CC(=O)NCc1ccc2c(c1)CN(C1CCC(=O)NC1=O)C2=O (stereo not shown) [Compound 88] | 1 to 10
CC(C)(C)OC(=O)CCC(=O)Oc1ccccc1C#CC(=O)NCc1ccc2c(c1)CN(C1CCC(=O)NC1=O)C2=O (stereo not shown) [Compound 89] | 1 to 10
O=C(C#Cc1ccc(Cl)cc1C(=O)O)NCc1ccc2c(c1)CN(C1CCC(=O)NC1=O)C2=O (stereo not shown) [Compound 90] | > 100
O=C(C#Cc1cc(C(=O)O)c(F)cc1F)NCc1ccc2c(c1)CN(C1CCC(=O)NC1=O)C2=O (stereo not shown) [Compound 91] | 1 to 10
Cc1c(C#CC(=O)NCc2ccc3c(c2)CN(C2CCC(=O)NC2=O)C3=O)cccc1C(=O)O (stereo not shown) [Compound 92] | > 100
CCCC(=O)OCOC(=O)c1ccccc1C#CC(=O)NCc1ccc2c(c1)CN(C1CCC(=O)NC1=O)C2=O (stereo not shown) [Compound 94] | > 100
CCCC(=O)OCOC(=O)c1cccc(C#CC(=O)NCc2ccc3c(c2)CN(C2CCC(=O)NC2=O)C3=O)c1 (stereo not shown) [Compound 95] | > 100
CC(=O)OCOC(=O)c1ccccc1C#CC(=O)NCc1ccc2c(c1)CN(C1CCC(=O)NC1=O)C2=O (stereo not shown) [Compound 96] | > 100
O=C(C#Cc1cc2ccccc2o1)NCc1ccc2c(c1)CN(C1CCC(=O)NC1=O)C2=O (stereo not shown) [Compound 98] | 1 to 10
O=C(C#Cc1coc2ccccc12)NCc1ccc2c(c1)CN(C1CCC(=O)NC1=O)C2=O (stereo not shown) [Compound 99] | < 1
O=C(C#Cc1cc(Cl)c(O)c(Cl)c1)NCc1ccc2c(c1)CN(C1CCC(=O)NC1=O)C2=O (stereo not shown) [Compound 100] | > 100
O=C(C#Cc1ccc(O)c(Cl)c1)NCc1ccc2c(c1)CN(C1CCC(=O)NC1=O)C2=O (stereo not shown) [Compound 101] | 10 to 100
O=C(C#Cc1ccc2occc2c1)NCc1ccc2c(c1)CN(C1CCC(=O)NC1=O)C2=O (stereo not shown) [Compound 102] | < 1
O=C(C#Cc1ccc(C(=O)O)cc1Cl)NCc1ccc2c(c1)CN(C1CCC(=O)NC1=O)C2=O (stereo not shown) [Compound 103] | 10 to 100
O=C(C#Cc1ccc(Cl)c(C(=O)O)c1)NCc1ccc2c(c1)CN(C1CCC(=O)NC1=O)C2=O (stereo not shown) [Compound 104] | < 1
Cc1cc(O)cc(C)c1C#CC(=O)NCc1ccc2c(c1)CN(C1CCC(=O)NC1=O)C2=O (stereo not shown) [Compound 105] | 1 to 10
O=C(C#Cc1nc2ccccc2s1)NCc1ccc2c(c1)CN(C1CCC(=O)NC1=O)C2=O (stereo not shown) [Compound 106] | 10 to 100

SMILES | IC50 [nM]
O=C(C#Cc1ccc2[nH]ncc2c1)NCc1ccc2c(c1)CN(C1CCC(=O)NC1=O)C2=O (stereo not shown) [Compound 107] | 10 to 100
O=C(C#Cc1ccc2[nH]ccc2c1)NCc1ccc2c(c1)CN(C1CCC(=O)NC1=O)C2=O (stereo not shown) [Compound 108] | 1 to 10
O=C(C#Cc1ccc(O)cc1Cl)NCc1ccc2c(c1)CN(C1CCC(=O)NC1=O)C2=O (stereo not shown) [Compound 109] | 1 to 10
O=C(C#Cc1cc2ccccc2[nH]1)NCc1ccc2c(c1)CN(C1CCC(=O)NC1=O)C2=O (stereo not shown) [Compound 110] | 1 to 10
O=C(C#CC1CCCC1)NCc1ccc2c(c1)CN(C1CCC(=O)NC1=O)C2=O (stereo not shown) [Compound 111] | 1 to 10
Cc1cc(O)ccc1C#CC(=O)NCc1ccc2c(c1)CN(C1CCC(=O)NC1=O)C2=O (stereo not shown) [Compound 112] | 1 to 10
Cc1cccc(C#CC(=O)NCc2ccc3c(c2)CN(C2CCC(=O)NC2=O)C3=O)c1O (stereo not shown) [Compound 113] | < 1
Cc1c(O)cccc1C#CC(=O)NCc1ccc2c(c1)CN(C1CCC(=O)NC1=O)C2=O (stereo not shown) [Compound 114] | 1 to 10
O=C(C#CC(O)c1ccccc1)NCc1ccc2c(c1)CN(C1CCC(=O)NC1=O)C2=O (stereo not shown) [Compound 115] | > 100
CC(=O)c1ccccc1C#CC(=O)NCc1ccc2c(c1)CN(C1CCC(=O)NC1=O)C2=O (stereo not shown) [Compound 116] | 1 to 10
CC(=O)c1cccc(C#CC(=O)NCc2ccc3c(c2)CN(C2CCC(=O)NC2=O)C3=O)c1 (stereo not shown) [Compound 117] | < 1
CC(=O)c1ccc(C#CC(=O)NCc2ccc3c(c2)CN(C2CCC(=O)NC2=O)C3=O)cc1 (stereo not shown) [Compound 118] | 1 to 10
CC1=C(C(=O)NCc2ccc3c(c2)CN(C2CCC(=O)NC2=O)C3=O)C(=O)c2ccccc21 (stereo not shown) [Compound 119] | > 100
O=C(C#Cc1ccc2ncsc2c1)NCc1ccc2c(c1)CN(C1CCC(=O)NC1=O)C2=O (stereo not shown) [Compound 120] | 1 to 10
O=C(C#Cc1ccc2scnc2c1)NCc1ccc2c(c1)CN(C1CCC(=O)NC1=O)C2=O (stereo not shown) [Compound 121] | < 1
O=C(C#Cc1ccc2ncoc2c1)NCc1ccc2c(c1)CN(C1CCC(=O)NC1=O)C2=O (stereo not shown) [Compound 122] | 10 to 100
O=C(C#Cc1ccc2ocnc2c1)NCc1ccc2c(c1)CN(C1CCC(=O)NC1=O)C2=O (stereo not shown) [Compound 123] | < 1
Nc1ccc(C#CC(=O)NCc2ccc3c(c2)CN(C2CCC(=O)NC2=O)C3=O)cc1 (stereo not shown) [Compound 124] | 10 to 100
O=C(C#CCN1CCCC1)NCc1ccc2c(c1)CN(C1CCC(=O)NC1=O)C2=O (stereo not shown) [Compound 125] | > 100
O=C(C#CN1CCCC1)NCc1ccc2c(c1)CN(C1CCC(=O)NC1=O)C2=O (stereo not shown) [Compound 126] | > 100
O=C(C#Cc1ccc2ncncc2c1)NCc1ccc2c(c1)CN(C1CCC(=O)NC1=O)C2=O (stereo not shown) [Compound 127] | > 100
O=C(C#Cc1ccc2nc[nH]c(=O)c2c1)NCc1ccc2c(c1)CN(C1CCC(=O)NC1=O)C2=O (stereo not shown) [Compound 128] | 10 to 100
O=C(C#Cc1cc2cn[nH]c2cc1F)NCc1ccc2c(c1)CN(C1CCC(=O)NC1=O)C2=O (stereo not shown) [Compound 129] | 10 to 100
O=C(C#Cc1ccc2[nH]ncc2c1F)NCc1ccc2c(c1)CN(C1CCC(=O)NC1=O)C2=O (stereo not shown) [Compound 130] | 1 to 10
Cn1cnc2cc(C#CC(=O)NCc3ccc4c(c3)CN(C3CCC(=O)NC3=O)C4=O)ccc21 (stereo not shown) [Compound 131] | 1 to 10
Cn1cnc2ccc(C#CC(=O)NCc3ccc4c(c3)CN(C3CCC(=O)NC3=O)C4=O)cc21 (stereo not shown) [Compound 132] | 10 to 100
Cn1cnc2c(C#CC(=O)NCc3ccc4c(c3)CN(C3CCC(=O)NC3=O)C4=O)cccc21 (stereo not shown) [Compound 133] | 1 to 10

What follows are compounds tested against T1, GSPT1 (Homo sapiens, UniProt P15170) (assay: Western blot of GSPT1 degradation in NB-4 cells). Details: 0.01 μM, 4 h treatment, western blot (FIG. 1).
T1 sequence (P15170 whole entry): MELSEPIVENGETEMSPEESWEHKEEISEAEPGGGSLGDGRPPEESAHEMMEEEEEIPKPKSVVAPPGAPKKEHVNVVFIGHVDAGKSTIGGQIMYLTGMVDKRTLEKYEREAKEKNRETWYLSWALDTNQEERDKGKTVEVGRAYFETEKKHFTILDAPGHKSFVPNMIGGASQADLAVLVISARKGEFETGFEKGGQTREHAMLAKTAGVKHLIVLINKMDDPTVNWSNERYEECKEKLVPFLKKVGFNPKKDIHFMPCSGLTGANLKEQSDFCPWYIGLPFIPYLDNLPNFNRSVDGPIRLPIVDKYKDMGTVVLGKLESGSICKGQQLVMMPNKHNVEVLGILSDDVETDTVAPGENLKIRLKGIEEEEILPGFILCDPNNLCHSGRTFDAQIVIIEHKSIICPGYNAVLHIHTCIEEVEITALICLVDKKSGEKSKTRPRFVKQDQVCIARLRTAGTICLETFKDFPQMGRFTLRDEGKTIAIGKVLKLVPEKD
Format: cell-based
Parameters: endogenous in cells; host or cells: NB-4
Protocol: (§1) Test Case 1: Regulatory Effect of the Present Invention Compound on GSPT1 in MV-4-11 Cells MV-4-11 (human myeloid monocytic leukemia cells) and NB-4 (human acute promyelocytic leukemia cells) cells were treated with medium RPMI 1640+10% FBS at 1*10^6/well was seeded in 6-well plates, then compounds were added for 4 h treatment, DMSO was used as a blank control, and cells were collected by centrifugation. Western blot analysis was performed with antibody labeling (Anti-GSPT1: CellSignaling Technology #14980s; Anti-GAPDH: HuabioET601-4; Goatanti-RabbitIgG-HRPantibody: HuabioHA1001) for detection on a Bio-Rad or MINICHEMI™ imaging system.

SMILES | degradation of GSPT1
Nc1ccccc1C#CC(=O)NCc1ccc2c(c1)CN(C1CCC(=O)NC1=O)C2=O (stereo not shown) [Compound 83] | significantly degradation

Same assay, conditions: pretreatment with proteasome inhibitor MG132 or NEDD8 activating enzyme inhibitor MLN4924

SMILES | compound-induced degradation of GSPT1 after pretreatment with MG132 or MLN4924
Nc1ccccc1C#CC(=O)NCc1ccc2c(c1)CN(C1CCC(=O)NC1=O)C2=O (stereo not shown) [Compound 83] | completely blocked

Each compound was assayed against T2, hERG potassium channel (Homo sapiens, UniProt Q12809) (assay: in vitro). Details: hERG Inhibition rate (3 μM), HEK293 cells expressing hERG, 3 min exposure.
T2 sequence (Q12809 whole entry): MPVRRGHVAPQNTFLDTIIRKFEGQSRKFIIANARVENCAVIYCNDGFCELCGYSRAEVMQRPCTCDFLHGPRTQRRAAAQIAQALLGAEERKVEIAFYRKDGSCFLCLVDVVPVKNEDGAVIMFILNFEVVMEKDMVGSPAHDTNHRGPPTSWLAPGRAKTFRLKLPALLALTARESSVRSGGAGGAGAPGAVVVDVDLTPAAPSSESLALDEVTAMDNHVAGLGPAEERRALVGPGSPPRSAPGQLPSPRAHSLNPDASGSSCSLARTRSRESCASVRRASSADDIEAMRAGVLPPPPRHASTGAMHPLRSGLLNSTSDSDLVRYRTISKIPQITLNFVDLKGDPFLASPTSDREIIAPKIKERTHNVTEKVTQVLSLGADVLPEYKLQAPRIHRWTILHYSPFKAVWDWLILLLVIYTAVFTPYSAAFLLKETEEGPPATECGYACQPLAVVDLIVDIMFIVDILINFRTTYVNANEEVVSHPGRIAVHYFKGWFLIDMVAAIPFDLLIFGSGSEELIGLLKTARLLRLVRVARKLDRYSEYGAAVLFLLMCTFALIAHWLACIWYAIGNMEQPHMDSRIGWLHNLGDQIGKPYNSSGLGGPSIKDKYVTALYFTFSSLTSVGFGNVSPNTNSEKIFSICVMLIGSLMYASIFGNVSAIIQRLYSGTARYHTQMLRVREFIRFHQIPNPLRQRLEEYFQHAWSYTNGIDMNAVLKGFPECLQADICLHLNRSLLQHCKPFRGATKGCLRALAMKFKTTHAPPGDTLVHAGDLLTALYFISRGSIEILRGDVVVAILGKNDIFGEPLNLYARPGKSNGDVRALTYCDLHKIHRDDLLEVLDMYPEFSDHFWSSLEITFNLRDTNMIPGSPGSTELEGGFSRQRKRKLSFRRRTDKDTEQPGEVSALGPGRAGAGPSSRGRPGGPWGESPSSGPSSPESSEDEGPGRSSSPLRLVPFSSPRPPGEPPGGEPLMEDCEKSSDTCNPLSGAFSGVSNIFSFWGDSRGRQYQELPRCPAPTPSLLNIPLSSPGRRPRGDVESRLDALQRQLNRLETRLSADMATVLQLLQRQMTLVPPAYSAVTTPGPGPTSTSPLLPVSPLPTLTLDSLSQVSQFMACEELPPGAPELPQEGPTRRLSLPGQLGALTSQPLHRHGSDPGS
Protocol: (§2) This test example is used to measure the effect of the compound on the hERG potassium channel of the clone expressed in human embryonic kidney cells (HEK293).
(§3) Assay: cells are placed in HEPES-buffered saline solution in glass-lined 96-well plates and loaded with appropriate amounts of test and control solution (0.3% DMSO solution) at each concentration for 3 min exposure time. Dilute the compound to be tested in 0.3% DMSO. An automated parallel patch-clamp system QPatch 48 X (Sophion) was used to test the inhibition of hERG by compounds at a concentration of 3 μM.
(§4) The calculation method of the inhibition rate is as follows: (peak tail current in the control group−peak tail current in the test group)/(peak tail current in the control group)×100%.

SMILES | inhibition at 3 µM [%]
O=C1CCC(N2Cc3cc(CNC(=O)C(F)(F)c4ccc(Cl)cc4)ccc3C2=O)C(=O)N1 (stereo not shown) [CC-90009] | 64

The compounds below were run against T2, hERG potassium channel (assay: hERG inhibition assay (automated patch clamp, QPatch)). Details: HEK293 cells expressing hERG, 3 min exposure.
Protocol: as §2, §3, §4

SMILES | hERG Inhibition rate (3 μM) [%]
O=C1CCC(N2Cc3cc(CNC(=O)C(F)(F)c4ccc(Cl)cc4)ccc3C2=O)C(=O)N1 (stereo not shown) [CC-90009] | 64.48

Each compound was assayed against T1, GSPT1 (assay: Western blot of GSPT1 degradation in MV-4-11 cells). Details: 10 μM, 4 h treatment, western blot (FIG. 1).
Format: cell-based
Parameters: endogenous in cells
Protocol: as §1

SMILES | degradation of GSPT1 protein
CCc1ccc(C#CC(=O)NCc2ccc3c(c2)CN(C2CCC(=O)NC2=O)C3=O)cc1 (stereo not shown) [Compound 1] | completely degradation

Same assay, conditions: concentrations from 1.52 nM, 4 h treatment, western blot (FIG. 1)

SMILES | degradation of GSPT1, concentration dependence
O=C(C#Cc1ccc(F)cn1)NCc1ccc2c(c1)CN(C1CCC(=O)NC1=O)C2=O (stereo not shown) [Compound 12] | induced the degradation of GSPT1 more as the concentration increases
